From the supplement of paper PMC10307832

How the values were obtained:
Assay in all cases: relative viability (nuclei count vs DMSO), 5 days (fraction); higher = more cells survive
RERF-LC-KJ = tested on: RERF-LC-KJ
Summary of the method: (§1)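 Lung cancer cell lines in 1536-well plates were dosed by pin tool the day after seeding, either with one drug alone or with a fixed anchor-drug dose plus five library-drug doses (not always all listed) in √10 steps. After 5 days, cells were fixed and their nuclei stained in one step (final 0.05% Triton X-100, 1% formaldehyde, 1 ug/ml Hoechst), then counted on 4× images. Relative viability is the nuclei count in treated wells divided by that in vehicle wells. Values are medians of duplicate plates.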

NCI-H1355 = tested on: NCI-H1355
Summary of the method: as §1

LK-2 = tested on: LK-2
Summary of the method: as §1

NCI-H1563 = tested on: NCI-H1563
Summary of the method: as §1

CAL-12T = tested on: CAL-12T
Summary of the method: as §1

LCLC-97TM1 = tested on: LCLC-97TM1
Summary of the method: as §1

PC-14 = tested on: PC-14
Summary of the method: as §1

EKVX = tested on: EKVX
Summary of the method: as §1

NCI-H2405 = tested on: NCI-H2405
Summary of the method: as §1

NCI-H1650 = tested on: NCI-H1650
Summary of the method: as §1

NCI-H2228 = tested on: NCI-H2228
Summary of the method: as §1

NCI-H661 = tested on: NCI-H661
Summary of the method: as §1

HCC-15 = tested on: HCC-15
Summary of the method: as §1

NCI-H1975 = tested on: NCI-H1975
Summary of the method: as §1

NCI-H520 = tested on: NCI-H520
Summary of the method: as §1

PC-3 [JPC-3] = tested on: PC-3 [JPC-3]
Summary of the method: as §1

NCI-H322M = tested on: NCI-H322M
Summary of the method: as §1

HCC-827 = tested on: HCC-827
Summary of the method: as §1

NCI-H1734 = tested on: NCI-H1734
Summary of the method: as §1

NCI-H1755 = tested on: NCI-H1755
Summary of the method: as §1

H3255 = tested on: H3255
Summary of the method: as §1

Nc1ccn([C@@H]2O[C@H](CO)[C@@H](O)[C@@H]2O)c(=O)n1 [Cytarabine] + C[C@@H](Oc1cc(-c2cnn(C3CCNCC3)c2)cnc1N)c1c(Cl)ccc(F)c1Cl [Crizotinib] (partner 1 µM)
relative viability (RERF-LC-KJ; first compound 0.005 µM): 0.853
relative viability (RERF-LC-KJ; first compound 0.01581 µM): 0.845
relative viability (RERF-LC-KJ; first compound 0.05 µM): 0.759
relative viability (RERF-LC-KJ; first compound 0.1581 µM): 0.502
relative viability (RERF-LC-KJ; first compound 0.5 µM): 0.4
relative viability (NCI-H1355; first compound 0.005 µM): 0.998
relative viability (NCI-H1355; first compound 0.01581 µM): 1.03
relative viability (NCI-H1355; first compound 0.05 µM): 0.973
relative viability (NCI-H1355; first compound 0.1581 µM): 0.46
relative viability (NCI-H1355; first compound 0.5 µM): 0.399
relative viability (LK-2; first compound 0.005 µM): 0.262
relative viability (LK-2; first compound 0.01581 µM): 0.305
relative viability (LK-2; first compound 0.05 µM): 0.208
relative viability (LK-2; first compound 0.1581 µM): 0.196
relative viability (LK-2; first compound 0.5 µM): 0.205
relative viability (NCI-H1563; first compound 0.005 µM): 0.806
relative viability (NCI-H1563; first compound 0.01581 µM): 0.916
relative viability (NCI-H1563; first compound 0.05 µM): 0.852
relative viability (NCI-H1563; first compound 0.1581 µM): 0.809
relative viability (NCI-H1563; first compound 0.5 µM): 0.606
relative viability (CAL-12T; first compound 0.005 µM): 0.413
relative viability (CAL-12T; first compound 0.01581 µM): 0.753
relative viability (CAL-12T; first compound 0.05 µM): 0.703
relative viability (CAL-12T; first compound 0.1581 µM): 0.511
relative viability (CAL-12T; first compound 0.5 µM): 0.153
relative viability (LCLC-97TM1; first compound 0.005 µM): 0.487
relative viability (LCLC-97TM1; first compound 0.01581 µM): 0.213
relative viability (LCLC-97TM1; first compound 0.05 µM): 0.181
relative viability (LCLC-97TM1; first compound 0.1581 µM): 0.115
relative viability (LCLC-97TM1; first compound 0.5 µM): 0.106
relative viability (PC-14; first compound 0.005 µM): 0.805
relative viability (PC-14; first compound 0.01581 µM): 0.84
relative viability (PC-14; first compound 0.05 µM): 0.778
relative viability (PC-14; first compound 0.1581 µM): 0.439
relative viability (PC-14; first compound 0.5 µM): 0.2
relative viability (EKVX; first compound 0.005 µM): 0.802
relative viability (EKVX; first compound 0.01581 µM): 1.07
relative viability (EKVX; first compound 0.05 µM): 0.827
relative viability (EKVX; first compound 0.1581 µM): 0.368
relative viability (EKVX; first compound 0.5 µM): 0.287
relative viability (NCI-H2405; first compound 0.005 µM): 0.754
relative viability (NCI-H2405; first compound 0.01581 µM): 0.693
relative viability (NCI-H2405; first compound 0.05 µM): 0.592
relative viability (NCI-H2405; first compound 0.1581 µM): 0.464
relative viability (NCI-H2405; first compound 0.5 µM): 0.327
relative viability (NCI-H1650; first compound 0.005 µM): 0.752
relative viability (NCI-H1650; first compound 0.01581 µM): 1.05
relative viability (NCI-H1650; first compound 0.05 µM): 0.544
relative viability (NCI-H1650; first compound 0.1581 µM): 0.315
relative viability (NCI-H1650; first compound 0.5 µM): 0.188
relative viability (NCI-H2228; first compound 0.005 µM): 0.373
relative viability (NCI-H2228; first compound 0.01581 µM): 0.31
relative viability (NCI-H2228; first compound 0.05 µM): 0.218
relative viability (NCI-H2228; first compound 0.1581 µM): 0.124
relative viability (NCI-H2228; first compound 0.5 µM): 0.151
relative viability (NCI-H661; first compound 0.005 µM): 0.963
relative viability (NCI-H661; first compound 0.01581 µM): 1.15
relative viability (NCI-H661; first compound 0.1581 µM): 0.975
relative viability (NCI-H661; first compound 0.5 µM): 0.632
relative viability (HCC-15; first compound 0.005 µM): 0.765
relative viability (HCC-15; first compound 0.01581 µM): 0.895
relative viability (HCC-15; first compound 0.05 µM): 0.84
relative viability (HCC-15; first compound 0.1581 µM): 0.67
relative viability (HCC-15; first compound 0.5 µM): 0.591
relative viability (NCI-H1975; first compound 0.005 µM): 0.801
relative viability (NCI-H1975; first compound 0.01581 µM): 1.01
relative viability (NCI-H1975; first compound 0.05 µM): 0.994
relative viability (NCI-H1975; first compound 0.1581 µM): 0.667
relative viability (NCI-H1975; first compound 0.5 µM): 0.373
relative viability (NCI-H520; first compound 0.005 µM): 0.56
relative viability (NCI-H520; first compound 0.01581 µM): 0.758
relative viability (NCI-H520; first compound 0.05 µM): 0.831
relative viability (NCI-H520; first compound 0.1581 µM): 0.56
relative viability (NCI-H520; first compound 0.5 µM): 0.469
relative viability (PC-3 [JPC-3]; first compound 0.005 µM): 0.781
relative viability (PC-3 [JPC-3]; first compound 0.01581 µM): 0.837
relative viability (PC-3 [JPC-3]; first compound 0.05 µM): 0.78
relative viability (PC-3 [JPC-3]; first compound 0.1581 µM): 0.712
relative viability (PC-3 [JPC-3]; first compound 0.5 µM): 0.617
relative viability (NCI-H322M; first compound 0.005 µM): 0.858
relative viability (NCI-H322M; first compound 0.01581 µM): 0.676
relative viability (NCI-H322M; first compound 0.05 µM): 0.534
relative viability (NCI-H322M; first compound 0.1581 µM): 0.366
relative viability (NCI-H322M; first compound 0.5 µM): 0.318
relative viability (HCC-827; first compound 0.005 µM): 0.593
relative viability (HCC-827; first compound 0.01581 µM): 0.478
relative viability (HCC-827; first compound 0.05 µM): 0.477
relative viability (HCC-827; first compound 0.1581 µM): 0.197
relative viability (HCC-827; first compound 0.5 µM): 0.249
relative viability (NCI-H1734; first compound 0.005 µM): 0.473
relative viability (NCI-H1734; first compound 0.01581 µM): 0.326
relative viability (NCI-H1734; first compound 0.05 µM): 0.23
relative viability (NCI-H1734; first compound 0.1581 µM): 0.143
relative viability (NCI-H1734; first compound 0.5 µM): 0.157
relative viability (NCI-H1755; first compound 0.005 µM): 0.788
relative viability (NCI-H1755; first compound 0.01581 µM): 0.761
relative viability (NCI-H1755; first compound 0.05 µM): 0.565
relative viability (NCI-H1755; first compound 0.1581 µM): 0.265
relative viability (NCI-H1755; first compound 0.5 µM): 0.286
relative viability (H3255; first compound 0.005 µM): 0.76
relative viability (H3255; first compound 0.01581 µM): 0.828
relative viability (H3255; first compound 0.05 µM): 0.776
relative viability (H3255; first compound 0.1581 µM): 0.724
relative viability (H3255; first compound 0.5 µM): 0.667
